Results from ChEMBL document CHEMBL3994622, “Design and synthesis of new RAF kinase-inhibiting antiproliferative quinoline derivatives. Part 2: Diarylurea derivatives” (Eur J Med Chem, 2017).

Experiments:
Assay type in all cases: functional
KM12 = experiment: Growth inhibition of human KM12 cells assessed as cell growth at 0.1 uM incubated for 48 hrs by sulforhodamine B assay relative to control; settings: KM12, 48 h, read-out: Activity
786-0 [1] = experiment: Growth inhibition of human 786-0 cells assessed as cell growth at 1 uM incubated for 48 hrs by sulforhodamine B assay relative to control; settings: 786-0, 48 h, read-out: Activity
UO-31 = experiment: Growth inhibition of human UO31 cells assessed as cell growth at 10 uM incubated for 48 hrs by sulforhodamine B assay relative to control; settings: UO-31, 48 h, read-out: Activity
Hs-578T = experiment: Growth inhibition of human Hs 578T cells assessed as cell growth at 100 uM incubated for 48 hrs by sulforhodamine B assay relative to control; settings: read-out: Activity
TK-10 [2] = experiment: Growth inhibition of human TK10 cells assessed as cell growth at 0.1 uM incubated for 48 hrs by sulforhodamine B assay relative to control; settings: TK-10, 48 h, read-out: Activity
786-0 [3] = experiment: Growth inhibition of human 786-0 cells assessed as cell growth at 0.1 uM incubated for 48 hrs by sulforhodamine B assay relative to control; settings: 786-0, 48 h, read-out: Activity
ACHN [4] = experiment: Growth inhibition of human ACHN cells assessed as cell growth at 1 uM incubated for 48 hrs by sulforhodamine B assay relative to control; settings: read-out: Activity
HCT-116 [5] = experiment: Growth inhibition of human HCT116 cells assessed as cell growth at 0.1 uM incubated for 48 hrs by sulforhodamine B assay relative to control; settings: HCT-116, 48 h, read-out: Activity
TK-10 [6] = experiment: Growth inhibition of human TK10 cells assessed as cell growth at 10 uM incubated for 48 hrs by sulforhodamine B assay relative to control; settings: TK-10, 48 h, read-out: Activity
SF-295 = experiment: Growth inhibition of human SF295 cells assessed as cell growth at 10 uM incubated for 48 hrs by sulforhodamine B assay relative to control; settings: SF-295, 48 h, read-out: Activity
OVCAR-8 = experiment: Growth inhibition of human OVCAR8 cells assessed as cell growth at 1 uM incubated for 48 hrs by sulforhodamine B assay relative to control; settings: OVCAR-8, 48 h, read-out: Activity
SF-539 = experiment: Growth inhibition of human SF539 cells assessed as cell growth at 100 uM incubated for 48 hrs by sulforhodamine B assay relative to control; settings: SF-539, 48 h, read-out: Activity
HOP-92 [7] = experiment: Growth inhibition of human HOP92 cells assessed as cell growth at 0.01 uM incubated for 48 hrs by sulforhodamine B assay relative to control; settings: HOP-92, 48 h, read-out: Activity
PC-3 = experiment: Growth inhibition of human PC3 cells assessed as cell growth at 1 uM incubated for 48 hrs by sulforhodamine B assay relative to control; settings: PC-3, 48 h, read-out: Activity
NCI/ADR-RES = experiment: Growth inhibition of human NCI/ADR-RES cells assessed as cell growth at 0.01 uM incubated for 48 hrs by sulforhodamine B assay relative to control; settings: read-out: Activity
MDA-MB-231 = experiment: Growth inhibition of human MDA-MB-231 cells assessed as cell growth at 10 uM incubated for 48 hrs by sulforhodamine B assay relative to control; settings: MDA-MB-231, 48 h, read-out: Activity
HL-60(TB) [8] = experiment: Growth inhibition of human HL-60(TB) cells assessed as cell growth at 1 uM incubated for 48 hrs by sulforhodamine B assay relative to control; settings: HL-60, 48 h, read-out: Activity
K562 = experiment: Growth inhibition of human K562 cells assessed as cell growth at 1 uM incubated for 48 hrs by sulforhodamine B assay relative to control; settings: K562, 48 h, read-out: Activity
CCRF-CEM = experiment: Growth inhibition of human CCRF-CEM cells assessed as cell growth at 0.1 uM incubated for 48 hrs by sulforhodamine B assay relative to control; settings: read-out: Activity
SNB-19 [9] = experiment: Growth inhibition of human SNB19 cells assessed as cell growth at 0.003 uM incubated for 48 hrs by sulforhodamine B assay relative to control; settings: SNB-19, 48 h, read-out: Activity
TK-10 [10] = experiment: Growth inhibition of human TK10 cells assessed as cell growth at 30 uM incubated for 48 hrs by sulforhodamine B assay relative to control; settings: TK-10, 48 h, read-out: Activity
MDA-MB-435 = experiment: Growth inhibition of human MDA-MB-435 cells assessed as cell growth at 0.03 uM incubated for 48 hrs by sulforhodamine B assay relative to control; settings: MDA-MB-435, 48 h, read-out: Activity
786-0 [11] = experiment: Growth inhibition of human 786-0 cells assessed as cell growth at 30 uM incubated for 48 hrs by sulforhodamine B assay relative to control; settings: 786-0, 48 h, read-out: Activity
SNB-19 [12] = experiment: Growth inhibition of human SNB19 cells assessed as cell growth at 30 uM incubated for 48 hrs by sulforhodamine B assay relative to control; settings: SNB-19, 48 h, read-out: Activity
ACHN [13] = experiment: Growth inhibition of human ACHN cells assessed as cell growth at 3 uM incubated for 48 hrs by sulforhodamine B assay relative to control; settings: read-out: Activity
HL-60(TB) [14] = experiment: Growth inhibition of human HL-60(TB) cells assessed as cell growth at 0.003 uM incubated for 48 hrs by sulforhodamine B assay relative to control; settings: HL-60, 48 h, read-out: Activity
MOLT-4 = experiment: Growth inhibition of human MOLT4 cells assessed as cell growth at 0.3 uM incubated for 48 hrs by sulforhodamine B assay relative to control; settings: MOLT-4, 48 h, read-out: Activity
HOP-92 [15] = experiment: Growth inhibition of human HOP92 cells assessed as cell growth at 3 uM incubated for 48 hrs by sulforhodamine B assay relative to control; settings: HOP-92, 48 h, read-out: Activity
HCT-116 [16] = experiment: Growth inhibition of human HCT116 cells assessed as cell growth at 3 uM incubated for 48 hrs by sulforhodamine B assay relative to control; settings: HCT-116, 48 h, read-out: Activity
Malme-3M = experiment: Growth inhibition of human MALME-3M cells assessed as cell growth at 0.003 uM incubated for 48 hrs by sulforhodamine B assay relative to control; settings: read-out: Activity
UACC-62 [17] = experiment: Growth inhibition of human UACC62 cells assessed as cell growth at 0.03 uM incubated for 48 hrs by sulforhodamine B assay relative to control; settings: UACC-62, 48 h, read-out: Activity
SK-OV-3 = experiment: Growth inhibition of human SKOV3 cells assessed as cell growth at 30 uM incubated for 48 hrs by sulforhodamine B assay relative to control; settings: SK-OV-3, 48 h, read-out: Activity
TK-10 [18] = experiment: Growth inhibition of human TK10 cells assessed as cell growth at 3 uM incubated for 48 hrs by sulforhodamine B assay relative to control; settings: TK-10, 48 h, read-out: Activity
UACC-62 [19] = experiment: Growth inhibition of human UACC62 cells assessed as cell growth at 0.003 uM incubated for 48 hrs by sulforhodamine B assay relative to control; settings: UACC-62, 48 h, read-out: Activity
NCI-H522 = experiment: Growth inhibition of human NCI-H522 cells assessed as cell growth at 30 uM incubated for 48 hrs by sulforhodamine B assay relative to control; settings: NCI-H522, 48 h, read-out: Activity
SK-MEL-2 = experiment: Growth inhibition of human SK-MEL-2 cells assessed as cell growth at 0.3 uM incubated for 48 hrs by sulforhodamine B assay relative to control; settings: SK-MEL-2, 48 h, read-out: Activity

SMILES | growth at 0.1 µM (KM12) | growth at 1 µM (786-0 [1]) | growth at 10 µM (UO-31) | growth at 100 µM (Hs-578T) | growth at 0.1 µM (TK-10 [2]) | growth at 0.1 µM (786-0 [3]) | growth at 1 µM (ACHN [4]) | growth at 0.1 µM (HCT-116 [5]) | growth at 10 µM (TK-10 [6]) | growth at 10 µM (SF-295) | growth at 1 µM (OVCAR-8) | growth at 100 µM (SF-539) | growth at 0.01 µM (HOP-92 [7]) | growth at 1 µM (PC-3) | growth at 0.01 µM (NCI/ADR-RES) | growth at 10 µM (MDA-MB-231) | growth at 1 µM (HL-60(TB) [8]) | growth at 1 µM (K562) | growth at 0.1 µM (CCRF-CEM) | growth at 0.003 µM (SNB-19 [9]) | further results
COc1cc2cc(Oc3ccc(NC(=O)Nc4ccc(Cl)c(Cl)c4)cc3)c(C)nc2cc1OC | 104% | 86% | 6% | -45% | 121% | 95% | 91% | 102% | -4% | -22% | 96% | -54% | 95% | 67% | 101% | 8% | 107% | 88% | 104% |  | 
COc1cc2cc(Oc3ccc(NC(=O)Nc4cc(C(F)(F)F)cc(C(F)(F)F)c4)cc3)c(C)nc2cc1OC | 95% | 87% | -70% | -9% | 89% | 92% | 17% | 106% | -3% | -76% | 76% | -74% | 93% | 27% | 101% | -83% | 72% | 32% | 97% |  | 
COc1cc2cc(Oc3ccc(NC(=O)Nc4ccc(Cl)c(C(F)(F)F)c4)cc3)c(C)nc2cc1OC |  |  |  |  |  |  |  |  |  |  |  |  |  |  |  |  |  |  |  | 94% | growth at 30 µM (TK-10 [10]): -46%; growth at 0.03 µM (MDA-MB-435): 95%; growth at 30 µM (786-0 [11]): -71%; growth at 30 µM (SNB-19 [12]): -87%; growth at 3 µM (ACHN [13]): 8%; growth at 0.003 µM (HL-60(TB) [14]): 96%; growth at 0.3 µM (MOLT-4): 98%; growth at 3 µM (HOP-92 [15]): -21%; growth at 3 µM (HCT-116 [16]): 7%; growth at 0.003 µM (Malme-3M): 98%; growth at 0.03 µM (UACC-62 [17]): 92%; growth at 30 µM (SK-OV-3): -51%; growth at 3 µM (TK-10 [18]): 18%; growth at 0.003 µM (UACC-62 [19]): 96%; growth at 30 µM (NCI-H522): -81%; growth at 0.3 µM (SK-MEL-2): 101%
Cc1nc2cc(O)c(O)cc2cc1Oc1ccc(NC(=O)Nc2ccc(Cl)c(Cl)c2)cc1 |  |  |  |  |  |  |  |  |  |  |  |  |  |  |  |  |  |  |  | 94% | growth at 30 µM (TK-10 [10]): 23%; growth at 0.03 µM (MDA-MB-435): 91%; growth at 30 µM (786-0 [11]): -31%; growth at 30 µM (SNB-19 [12]): 2%; growth at 3 µM (ACHN [13]): 51%; growth at 0.003 µM (HL-60(TB) [14]): 102%; growth at 0.3 µM (MOLT-4): 106%; growth at 3 µM (HOP-92 [15]): 48%; growth at 3 µM (HCT-116 [16]): 42%; growth at 0.003 µM (Malme-3M): 99%; growth at 0.03 µM (UACC-62 [17]): 97%; growth at 30 µM (SK-OV-3): 7%; growth at 3 µM (TK-10 [18]): 98%; growth at 0.003 µM (UACC-62 [19]): 96%; growth at 30 µM (NCI-H522): -46%; growth at 0.3 µM (SK-MEL-2): 118%
